“Also recorded” adds a separate entry of the source.
Key:
[1] = biological target: T1, Topo I (Homo sapiens, UniProt P11387); experiment: Topo I inhibitory activity, agarose gel electrophoresis (pBR322); type: biochemical; conditions: for Topo I inhibitory activity (in words) / nicked DNA in the lane (DNA breakage): 20 μM
T1 sequence (P11387 1-765): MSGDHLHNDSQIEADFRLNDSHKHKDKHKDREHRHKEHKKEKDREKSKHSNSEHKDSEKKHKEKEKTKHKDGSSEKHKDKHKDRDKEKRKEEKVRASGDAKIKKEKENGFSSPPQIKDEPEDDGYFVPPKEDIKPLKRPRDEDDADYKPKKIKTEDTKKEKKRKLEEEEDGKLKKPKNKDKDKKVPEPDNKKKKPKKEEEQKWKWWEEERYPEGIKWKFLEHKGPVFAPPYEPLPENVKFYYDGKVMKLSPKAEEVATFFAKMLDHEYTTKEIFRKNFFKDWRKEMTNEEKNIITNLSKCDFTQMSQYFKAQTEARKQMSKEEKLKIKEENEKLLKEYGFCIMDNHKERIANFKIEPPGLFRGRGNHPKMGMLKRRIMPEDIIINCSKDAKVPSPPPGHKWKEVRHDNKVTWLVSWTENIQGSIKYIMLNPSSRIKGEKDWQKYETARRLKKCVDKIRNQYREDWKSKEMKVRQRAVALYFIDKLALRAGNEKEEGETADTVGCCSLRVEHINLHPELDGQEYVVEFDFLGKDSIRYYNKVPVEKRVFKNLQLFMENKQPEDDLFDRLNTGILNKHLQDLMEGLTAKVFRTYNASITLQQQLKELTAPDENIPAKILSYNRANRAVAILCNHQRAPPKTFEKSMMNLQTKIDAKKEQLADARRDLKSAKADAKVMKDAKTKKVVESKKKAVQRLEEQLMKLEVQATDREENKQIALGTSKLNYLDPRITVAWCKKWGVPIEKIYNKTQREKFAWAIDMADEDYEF
Experimental: In this assay, 250 ng of pBR322 plasmid DNA, different concentrations of the compounds to be tested, 0.1% BSA 1 μL, 10× Topo I buffer, Topo I and add 1× TAE buffer were mixed to a final volume of 20 μL. The reaction was carried out for 30 min at 37 °C in a water bath. After the reaction was terminated, 4 μL of each of the 6× DNA Sampling Buffers were added to the gel. The pBR322 plasmid DNA alone was used as a negative control, and camptothecin was used as a positive control. Finally, the samples were loaded onto the gels and electrophoresed for about 1.5 h. After electrophoresis, the gel blocks were incubated in 1 mg/L ethidium bromide (EB) for 30 min and then visualized on the gel system.

[2] = test system: A549; experiment: MTT antiproliferative assay, A549; type: cell-based, human; conditions: mean ± SD
Experimental: (§1) Having evaluated their Topo I inhibitory activity, the antiproliferative activity of the target compounds against some common human cancer cell lines (NCI-H460, A549, ACHN, Cal27 and MGC-803) and one normal cell line (SV-HUC-1) was tested via an MTT assay. TPT, the first Topo I inhibitor approved in clinics, and cisplatin (CDDP), a commonly selected anticancer drug for treating head and neck malignancies, were used as the positive controls.
(§2) Human oral cancer Cal27 cells were seeded in 96-well plates and incubated overnight in 180 μL of medium containing 10% Fetal Bovine Serum (Gibco, San Francisco, CA, USA). […] Then, 10 μL of 5 mg/mL MTT solution was added to each well and incubated at 37 °C for 4 h. After 4 h of incubation at 37 °C, the MTT-containing medium was removed and DMSO was added to each well and the absorbance at 570 nm and 630 nm was measured using a microplate reader (CYTATION 3, Burton, Westwood, NJ, USA). Survival/% = (mean OD of experimental group/mean OD of control group) × 100%. Each test was repeated at least three times.

[3] = test system: SV-HUC-1; experiment: MTT assay, normal cell line SV-HUC-1; type: cell-based; conditions: mean ± SD
Experimental: as §1, §2

[4] = test system: MGC-803; experiment: MTT antiproliferative assay, MGC-803; type: cell-based, human; conditions: mean ± SD
Experimental: as §1, §2

[5] = test system: NCI-H460; experiment: MTT antiproliferative assay, NCI-H460; type: cell-based, human; conditions: mean ± SD
Experimental: as §1, §2

[6] = test system: ACHN; experiment: MTT antiproliferative assay, ACHN; type: cell-based, human; conditions: 48 h, mean ± SD
Experimental: as §1, §2

[7] = test system: Cal27; experiment: MTT antiproliferative assay, Cal27; type: cell-based, human; conditions: mean ± SD
Experimental: as §1, §2

Compound	Topo I inhibitory activity (in words) [1]	IC50 ([2]; Homo sapiens, A549, 48 h)	IC50 ([3]; SV-HUC1, 48 h)	IC50 ([4]; Homo sapiens, MGC-803, 48 h)	IC50 ([5]; Homo sapiens, NCI-H460, 48 h)	IC50 ([6]; Homo sapiens, ACHN)	IC50 ([7]; Homo sapiens, CAL-27, 48 h)	nicked DNA in the lane (DNA breakage) [1]	concentration at which the activity of Topo I was fully inhibited ([1]; different concentrations)	IC50 ([2]; 48 h)	IC50 ([3]; 48 h)	IC50 ([4]; 48 h)	IC50 ([5]; 48 h)	IC50 [6]	IC50 ([7]; 48 h)
Cc1cc(C)c2c(n1)S(=O)(=O)c1c-2nc(NCCCN2CCOCC2)c2ccccc12 [7bi, 7,9-Dimethyl-5-((3-morpholinopropyl)amino)-pyrido[3′,2′:4,5]thieno[3,2-c]isoquinoline 11,11-dioxide]	weak Topo I activity	80.5 ± 2.44 µM	87.4 ± 2.65 µM	> 100 µM	73.68 ± 0.67 µM	> 100 µM	20.3 ± 2.89 µM	–	–	–	–	–	–	–	–
CCN(CC)CCNc1nc2c(c3ccccc13)S(=O)(=O)c1nc(C)cc(C)c1-2 [7bb, 5-((2-(Diethylamino)ethyl)amino)-7,9-dimethylpyrido[3′,2′:4,5]thieno[3,2-c]isoquinoline 11,11-dioxide]	weak Topo I activity	7.54 ± 2.07 µM	3.57 ± 0.35 µM	6.02 ± 1.59 µM	7.68 ± 0.88 µM	5.66 ± 0.54 µM	4.89 ± 2.41 µM	–	–	–	–	–	–	–	–
NCCCNc1nc2c(c3ccccc13)S(=O)(=O)c1ncccc1-2 [7ak, 5-((3-Aminopropyl)amino)pyrido[3′,2′:4,5]thieno[3,2-c]isoquinoline 11,11-dioxide]	–	52 ± 1.49 µM	> 100 µM	10.2 ± 1.61 µM	56.6 ± 3.25 µM	7.94 ± 3.26 µM	10.6 ± 1.32 µM	nicked DNA could be clearly observed	–	–	–	–	–	–	–
O=S1(=O)c2ncccc2-c2nc(NCCCN3CCCC3)c3ccccc3c21 [7ah, 5-((3-(Pyrrolidin-1-yl)propyl)amino)pyrido[3′,2′:4,5] thieno[3,2-c]isoquinoline 11,11-dioxide]	–	27.7 ± 1.49 µM	> 100 µM	19.5 ± 0.87 µM	42.7 ± 2.28 µM	13 ± 1.24 µM	23.1 ± 2.48 µM	nicked DNA could be clearly observed	–	–	–	–	–	–	–
Cc1cc(C)c2c(n1)S(=O)(=O)c1c-2nc(NCCCN2CCCC2)c2ccccc12 [7bh, 7,9-Dimethyl-5-((3-(pyrrolidin-1-yl)propyl)amino)-pyrido[3′,2′:4,5]thieno[3,2-c]isoquinoline 11,11-dioxide]	potent Topo I activity	4.84 ± 0.74 µM	3.83 ± 0.14 µM	4.83 ± 0.67 µM	4.79 ± 0.4 µM	5.9 ± 1.45 µM	3.47 ± 0.84 µM	–	40 µM	–	–	–	–	–	–
O=S1(=O)c2ncccc2-c2nc(NCCN3CCCC3)c3ccccc3c21 [7ac, 5-((2-(Pyrrolidin-1-yl)ethyl)amino)pyrido[3′,2′:4,5] thieno[3,2-c]isoquinoline 11,11-dioxide]	–	9.69 ± 2.08 µM	14.2 ± 2.77 µM	15.2 ± 3.41 µM	12 ± 4.2 µM	16.9 ± 3.27 µM	14.6 ± 2.12 µM	nicked DNA could be clearly observed	–	–	–	–	–	–	–
Cc1cc(C)c2c(n1)S(=O)(=O)c1c-2nc(NCCCN(C)C)c2ccccc12 [7bf, 5-((3-(Dimethylamino)propyl)amino)-7,9-dimethylpyrido[3′,2′:4,5]thieno[3,2-c]isoquinoline 11,11-dioxide]	potent Topo I activity; also recorded: weak Topo I activity	6.25 ± 2.23 µM	5.14 ± 1.55 µM	8.44 ± 2.86 µM	5.07 ± 1.92 µM	6.67 ± 1.49 µM	5.2 ± 1.2 µM	–	–	–	–	–	–	–	–
Cc1cc(-c2ccccc2)nc2c1-c1nc(NCCCN3CCCC3)c3ccccc3c1S2(=O)=O [7ch, 7-Methyl-9-phenyl-5-((3-(pyrrolidin-1-yl)propyl)-amino)pyrido[3′,2′:4,5]thieno[3,2-c]isoquinoline 11,11-dioxide]	–	–	–	–	–	–	–	nicked DNA could be clearly observed	–	> 100 µM	49.6 ± 3.27 µM	> 100 µM	> 100 µM	> 100 µM	> 100 µM
Cc1cc(C)c2c(n1)S(=O)(=O)c1c-2nc(NCCN2CCCC2)c2ccccc12 [7bc, 7,9-Dimethyl-5-((2-(pyrrolidin-1-yl)ethyl)amino) pyrido[3′,2′:4,5]thieno[3,2-c]isoquinoline 11,11-dioxide]	potent Topo I activity	5.47 ± 0.82 µM	8.17 ± 3.36 µM	6.44 ± 0.76 µM	9.57 ± 2.07 µM	6.41 ± 1.41 µM	3.36 ± 0.83 µM	–	–	–	–	–	–	–	–
CCN(CC)CCCNc1nc2c(c3ccccc13)S(=O)(=O)c1nc(C)cc(C)c1-2 [7bg, 5-((3-(Diethylamino)propyl)amino)-7,9-dimethyl-pyrido[3′,2′:4,5]thieno[3,2-c]isoquinoline 11,11-dioxide]	weak Topo I activity	6.54 ± 0.52 µM	4.38 ± 0.46 µM	6.23 ± 1.96 µM	6.92 ± 2.01 µM	6.89 ± 2.86 µM	6.35 ± 3.28 µM	–	–	–	–	–	–	–	–
Cc1cc(-c2ccccc2)nc2c1-c1nc(NCCCN(C)C)c3ccccc3c1S2(=O)=O [7cf, 5-((3-(Dimethylamino)propyl)amino)-7-methyl-9-phenylpyrido[3′,2′:4,5]thieno[3,2-c]isoquinoline 11,11-dioxide]	–	–	–	–	–	–	–	nicked DNA could be clearly observed	–	> 100 µM	12.1 ± 3.26 µM	13.3 ± 4.44 µM	12.6 ± 2.23 µM	16.6 ± 3.08 µM	21.5 ± 3.81 µM
CCN(CC)CCCNc1nc2c(c3ccccc13)S(=O)(=O)c1ncccc1-2 [7ag, 5-((3-(Diethylamino)propyl)amino)pyrido[3′,2′:4,5] thieno[3,2-c]isoquinoline 11,11-dioxide]	–	30 ± 0.31 µM	75.8 ± 2.79 µM	24.37 ± 0.18 µM	57.8 ± 0.65 µM	26.9 ± 0.72 µM	22.5 ± 1.84 µM	nicked DNA could be clearly observed	–	–	–	–	–	–	–
CCN(CC)CCCNc1nc2c(c3ccccc13)S(=O)(=O)c1nc(-c3ccccc3)cc(C)c1-2 [7cg, 5-((3-(Diethylamino)propyl)amino)-7-methyl-9-phenylpyrido[3′,2′:4,5]thieno[3,2-c]isoquinoline 11,11-dioxide]	–	–	–	–	–	–	–	nicked DNA could be clearly observed	–	27.1 ± 2.25 µM	15.6 ± 3.18 µM	8.22 ± 2.75 µM	16.6 ± 1.44 µM	15.4 ± 3.65 µM	17.7 ± 3.96 µM
